Patent US9247741B2, “Use of macrocyclic picolinamides as fungicides” (DOW AGROSCIENCES LLC, priority 2013, dated 2016)

Columns and labels:
Assay type in all cases: in vivo
[1] = test system: Blumeria graminis Fsp. Hordei; experiment: Barley powdery mildew (ERYSGH) disease control; settings: 24 h, 1 Day Protectant, read-out: ERYSGH disease control rating
Procedure: Technical grades of materials were dissolved in acetone, which were then mixed with nine volumes of water containing 110 ppm Triton X-100. The fungicide solutions were applied onto wheat seedlings using an automated booth sprayer to run-off. All sprayed plants were allowed to air dry prior to further handling. All fungicides were evaluated using the aforementioned method for their activity vs. all target diseases. Wheat leaf blotch and brown rust activity were also evaluated using track spray applications, in which case the fungicides were formulated as EC formulations, containing 0.1% Trycol 5941 in the spray solutions. Wheat plants (variety Yuma) were grown from seed in a greenhouse in 50% mineral soil/50% soil-less Metro mix until the first leaf was fully emerged, with 7-10 seedlings per pot. These plants were inoculated with an aqueous spore suspension of Septoria tritici either prior to or after fungicide treatments. After inoculation the plants were kept in 100% relative humidity (one day in a dark dew chamber followed by two to three days in a lighted dew chamber at 20° C.) to permit spores to germinate and infect the leaf. The plants were then transferred to a greenhouse set at 20° C. for disease to develop. When disease symptoms were fully expressed on the l^st leaves of untreated plants, infection levels were assessed on a scale of 0 to 100 percent disease severity. Percent disease control was calculated using the ratio of disease severity on treated plants relative to untreated plants. Evaluation of Fungicidal Activity: Barley Powdery Mildew (Blumeria graminis Fsp. Hordei; Synonym: Erysiphe graminis Fsp. Hordei; Bayer Code […]) Barley seedlings (variety Harrington) were propagated in soil-less Metro mix, with each pot having 8 to 12 plants, and used in the test when first leaf was fully emerged. Test plants were inoculated by dusting with infected stock plants 24 hr after fungicide treatments. After inoculation the plants were kept in a greenhouse set at 20° C. for disease to develop. Fungicide formulation, application and disease assessment on the sprayed leaves followed the procedures as described in the Example A.

Leptosphaeria nodorum = experiment: Wheat glume blotch (LEPTNO) disease control; settings: Parastagonospora nodorum, 24 h, 1 Day Protectant, read-out: LEPTNO disease control rating
Procedure: Technical grades of materials were dissolved in acetone, which were then mixed with nine volumes of water containing 110 ppm Triton X-100. The fungicide solutions were applied onto wheat seedlings using an automated booth sprayer to run-off. All sprayed plants were allowed to air dry prior to further handling. All fungicides were evaluated using the aforementioned method for their activity vs. all target diseases. Wheat leaf blotch and brown rust activity were also evaluated using track spray applications, in which case the fungicides were formulated as EC formulations, containing 0.1% Trycol 5941 in the spray solutions. Wheat plants (variety Yuma) were grown from seed in a greenhouse in 50% mineral soil/50% soil-less Metro mix until the first leaf was fully emerged, with 7-10 seedlings per pot. These plants were inoculated with an aqueous spore suspension of Septoria tritici either prior to or after fungicide treatments. After inoculation the plants were kept in 100% relative humidity (one day in a dark dew chamber followed by two to three days in a lighted dew chamber at 20° C.) to permit spores to germinate and infect the leaf. The plants were then transferred to a greenhouse set at 20° C. for disease to develop. When disease symptoms were fully expressed on the l^st leaves of untreated plants, infection levels were assessed on a scale of 0 to 100 percent disease severity. Percent disease control was calculated using the ratio of disease severity on treated plants relative to untreated plants. Evaluation of Fungicidal Activity: Wheat Glume Blotch (Leptosphaeria nodorum; Bayer Code […]) Wheat plants (variety Yuma) were grown from seed in a greenhouse in 50% mineral soil/50% soil-less Metro mix until the first leaf was fully emerged, with 7-10 seedlings per pot. These plants were inoculated with an aqueous spore suspension of Leptosphaeria nodorum 24 hr after fungicide treatments. After inoculation the plants were kept in 100% relative humidity (one day in a dark dew chamber followed by two days in a lighted dew chamber at 20° C.) to permit spores to germinate and infect the leaf. The plants were then transferred to a greenhouse set at 20° C. for disease to develop. Fungicide formulation, application and disease assessment followed the procedures as described in the Example A.

[2] = test system: Glomerella lagenarium; Anamorph: Colletotrichum lagenarium; experiment: Cucumber anthracnose (COLLLA) disease control; settings: Colletotrichum orbiculare, 24 h, 1 Day Protectant, read-out: COLLLA disease control rating
Procedure: Technical grades of materials were dissolved in acetone, which were then mixed with nine volumes of water containing 110 ppm Triton X-100. The fungicide solutions were applied onto wheat seedlings using an automated booth sprayer to run-off. All sprayed plants were allowed to air dry prior to further handling. All fungicides were evaluated using the aforementioned method for their activity vs. all target diseases. Wheat leaf blotch and brown rust activity were also evaluated using track spray applications, in which case the fungicides were formulated as EC formulations, containing 0.1% Trycol 5941 in the spray solutions. Wheat plants (variety Yuma) were grown from seed in a greenhouse in 50% mineral soil/50% soil-less Metro mix until the first leaf was fully emerged, with 7-10 seedlings per pot. These plants were inoculated with an aqueous spore suspension of Septoria tritici either prior to or after fungicide treatments. After inoculation the plants were kept in 100% relative humidity (one day in a dark dew chamber followed by two to three days in a lighted dew chamber at 20° C.) to permit spores to germinate and infect the leaf. The plants were then transferred to a greenhouse set at 20° C. for disease to develop. When disease symptoms were fully expressed on the l^st leaves of untreated plants, infection levels were assessed on a scale of 0 to 100 percent disease severity. Percent disease control was calculated using the ratio of disease severity on treated plants relative to untreated plants. Evaluation of Fungicidal Activity: Cucumber Anthracnose (Glomerella lagenarium; Anamorph: Colletotrichum lagenarium; Bayer Code COLLLA) Cucumber seedlings (variety Bush Pickle) were propagated in soil-less Metro mix, with each pot having one plant, and used in the test when 12 to 14 days old. Test plants were inoculated with an aqueous spore suspension of Colletotrichum lagenarium 24 hr after fungicide treatments. After inoculation the plants were kept in a dew room at 22° C. with 100% relative humidity for 48 hr to permit spores to germinate and infect the leaf. The plants were then transferred to a growth room set at 22° C. for disease to develop. Fungicide formulation, application and disease assessment on the sprayed leaves followed the procedures as described in the Example A.

| Compound | pest or weed control at 100 ppm [1] | pest or weed control at 100 ppm (Leptosphaeria nodorum) | pest or weed control at 100 ppm [2] |
| --- | --- | --- | --- |
| CCCO[C@H]1CCC[C@H](NC(=O)c2nccc(OC)c2OCOC(C)=O)C(=O)O[C@@H](C)[C@@H]1CCC(C)C [Compound 25, ((2-(((3S,7S,8S,9S)-8-isopentyl-9-methyl-2-oxo-7-propoxyoxonan-3-yl)carbamoyl)-4-methoxypyridin-3-yl)oxy)methyl acetate] | > 70% | > 70% | > 70% |
| CCCO[C@H]1CCC[C@H](NC(=O)c2nccc(OC)c2OC(C)=O)C(=O)O[C@@H](C)[C@@H]1CCC(C)C [Compound 74, 2-(((3S,7S,8S,9S)-8-isopentyl-9-methyl-2-oxo-7-propoxyoxonan-3-yl)carbamoyl)-4-methoxypyridin-3-yl acetate] | < 70% | > 70% | > 70% |
| CCCC[C@H]1[C@H](C)OC(=O)[C@@H](NC(=O)c2nccc(OC)c2OCOC(C)=O)CCC[C@@H]1OCC1CC1 [Compound 73] | > 70% | > 70% | > 70% |
| COc1ccnc(C(=O)N[C@H]2CCC[C@H](OCC3CC3)[C@@H](Cc3ccc(F)cc3)[C@H](C)OC2=O)c1OCOC(C)=O [Compound 61] | < 70% | > 70% | > 70% |
| CCCO[C@H]1CCC[C@H](NC(=O)c2nccc(OC)c2OC(C)=O)C(=O)O[C@@H](C)[C@@H]1Cc1ccccc1 [Compound 70] | < 70% | > 70% | > 70% |
| COc1ccnc(C(=O)N[C@H]2CCC[C@H](Oc3ccccc3)[C@@H](CCC(C)C)[C@H](C)OC2=O)c1OC(C)=O [Compound 36] | > 70% | > 70% | > 70% |
| COc1ccnc(C(=O)N[C@H]2CCC[C@H](Oc3ccccc3)[C@@H](CCC(C)C)[C@H](C)OC2=O)c1OCOC(C)=O [Compound 40] | > 70% | > 70% | > 70% |
| CCCC[C@H]1[C@H](C)OC(=O)[C@@H](NC(=O)c2nccc(OC)c2OCOC(C)=O)CCC[C@@H]1Oc1ccccc1 [Compound 33] | > 70% | > 70% | > 70% |
